In patent publication US20220089575A1, “FARNESOID X RECEPTOR AGONISTS AND USES THEREOF” (Metacrine, Inc., priority 2017, published 2022):

The compounds below were run against T1, hFXR (Homo sapiens, UniProt Q96RI1) (assay: In Vitro FXR Assay (TK): TK-ECRE-luc reporter in transfected CV-1 cells). Details: 18 hrs, luminescence, maximum efficacy of <25% of the Fexarmine control classified as '+'.
T1 construct: expressed in transfected cells; host or cells: CV-1 cells
T1 sequence (Q96RI1 1-486): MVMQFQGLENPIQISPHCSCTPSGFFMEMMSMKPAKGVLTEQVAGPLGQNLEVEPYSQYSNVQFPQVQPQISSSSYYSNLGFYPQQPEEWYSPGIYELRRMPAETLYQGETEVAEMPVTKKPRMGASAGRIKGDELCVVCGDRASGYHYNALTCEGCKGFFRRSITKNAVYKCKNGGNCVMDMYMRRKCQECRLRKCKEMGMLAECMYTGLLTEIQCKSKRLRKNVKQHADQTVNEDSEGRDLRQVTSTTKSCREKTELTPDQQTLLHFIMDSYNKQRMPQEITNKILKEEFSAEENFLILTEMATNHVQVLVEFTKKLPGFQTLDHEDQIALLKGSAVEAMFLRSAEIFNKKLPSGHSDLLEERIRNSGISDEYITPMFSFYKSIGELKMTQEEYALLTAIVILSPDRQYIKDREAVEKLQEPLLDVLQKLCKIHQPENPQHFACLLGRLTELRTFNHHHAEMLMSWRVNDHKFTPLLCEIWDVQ
T1 sequence (P19793 1-462 partner): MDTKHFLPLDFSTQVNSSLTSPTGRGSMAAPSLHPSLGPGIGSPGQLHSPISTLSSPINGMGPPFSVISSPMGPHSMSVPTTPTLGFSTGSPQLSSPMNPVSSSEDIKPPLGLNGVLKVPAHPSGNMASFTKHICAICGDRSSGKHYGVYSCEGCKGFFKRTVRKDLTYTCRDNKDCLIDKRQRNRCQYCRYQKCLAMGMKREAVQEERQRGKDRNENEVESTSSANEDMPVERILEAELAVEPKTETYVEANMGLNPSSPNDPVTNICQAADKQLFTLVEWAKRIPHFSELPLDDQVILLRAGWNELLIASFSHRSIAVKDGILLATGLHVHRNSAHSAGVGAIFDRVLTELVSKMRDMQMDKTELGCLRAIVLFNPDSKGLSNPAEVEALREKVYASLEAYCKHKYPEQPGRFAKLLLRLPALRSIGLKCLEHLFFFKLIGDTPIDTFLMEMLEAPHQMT
Format: cell-based
Experimental: CV-1 cells were seeded at a density of 2,000,000 cells in a T175 flask with DMEM+10% charcoal double-stripped FBS and incubated at 37° C. in 5% CO2 for 18 h (O/N).
After 18 h of incubation, the medium in the T175 flask was changed with fresh DMEM+10% charcoal super-stripped serum. In a polypropylene tube, 2500 μL OptiMEM (Life Technologies, Cat #31985-062) was combined with expression plasmids for hFXR, hRXR, TK-ECRE-luc and pCMX-YFP. The tube was then briefly vortexed and incubated at room temperature for 5 minutes. Transfection reagent (X-tremeGENE HP from Roche, Cat #06 366 236 001) was added to the OptiMEM/plasmid mixture vortexed and incubated at room temperature for 20 minutes. Following incubation, the transfection reagent/DNA mixture complex was added to cells in the T175 flask and the cells were incubated at 37° C. in 5% CO2 for 18 h (O/N).
Compounds were serially diluted in DMSO and added to transfected CV-1 cells. The cells were then incubated for 18 hrs. The next day cells were lysed and examined for luminescence.

EC50, ≤ 250 nM:
CNC(=O)O[C@H]1CC[C@H](C(=O)N(CC23CCC(c4ccc(OC)c(C)c4)(CC2)CC3)c2cccc(-c3cc(C4CC4)ns3)c2)CC1 [Compound 2.08, 4-((3-(3-Cyclopropylisothiazol-5-yl)phenyl)((4-(4-methoxy-3-methylphenyl)bicyclo[2.2.2]octan-1-yl)methyl)carbamoyl)cyclohexyl trans-methylcarbamate]
CNC(=O)O[C@H]1CC[C@H](C(=O)N(CC23CCC(c4ccc(N(C)C)nc4)(CC2)CC3)c2cccc(-c3coc(C4CC4)n3)c2)CC1 [Compound 3, 4-((3-(2-Cyclopropyloxazol-4-yl)phenyl)((4-(6-(dimethylamino)pyridin-3-yl)bicyclo[2.2.2]octan-1-yl)methyl)carbamoyl)cyclohexyl trans-methylcarbamate]
CCNC(=O)O[C@H]1CC[C@H](C(=O)N(C[C@H]2CC[C@H](c3ccc(OC)c(C)c3)CC2)c2cccc(-c3cnn(C4CC4)c3)c2)CC1 [Compound 3.01, trans-4-((3-(1-Cyclopropyl-1H-pyrazol-4-yl)phenyl)((trans-4-(4-methoxy-3-methylphenyl)cyclohexyl)methyl)carbamoyl)cyclohexyl ethylcarbamate]
CNC(=O)O[C@H]1CC[C@H](C(=O)N(C[C@H]2CC[C@H](c3ccc(OC)c(C)n3)CC2)c2cccc(-c3cnn(C4CC4)c3)c2)CC1 [Compound 3.02, trans-4-((3-(1-Cyclopropyl-1H-pyrazol-4-yl)phenyl)((trans-4-(5-methoxy-6-methylpyridin-2-yl)cyclohexyl)methyl)carbamoyl)cyclohexyl methylcarbamate]
CNC(=O)O[C@H]1CC[C@H](C(=O)N(CC23CCC(c4ccc(N(C)C)nc4)(CC2)CC3)c2cccc(-c3cnn(C4CC4)c3)c2)CC1 [Compound 3.03, 4-((3-(1-Cyclopropyl-1H-pyrazol-4-yl)phenyl)((4-(6-(dimethylamino)pyridin-3-yl)bicyclo[2.2.2]octan-1-yl)methyl)carbamoyl)cyclohexyl trans-methylcarbamate]
CNC(=O)O[C@H]1CC[C@H](C(=O)N(C[C@H]2CC[C@H](c3ccc(OC)c(C)c3)CC2)c2cc(-c3cnn(C4CC4)c3)ccn2)CC1 [Compound 3.04, trans-4-((4-(1-Cyclopropyl-1H-pyrazol-4-yl)pyridin-2-yl)((trans-4-(4-methoxy-3-methylphenyl)cyclohexyl)methyl)carbamoyl)cyclohexyl methylcarbamate]
CNC(=O)O[C@H]1CC[C@H](C(=O)N(C[C@H]2CC[C@H](c3ccc(N(C)C)nc3)CC2)c2cccc(-c3coc(C4CC4)n3)c2)CC1 [Compound 3.05, trans-4-((3-(2-Cyclopropyloxazol-4-yl)phenyl)((trans-4-(6-(dimethylamino)pyridine-3-yl)cyclohexyl)methyl)carbamoyl)cyclohexyl methylcarbamate]
COc1ccc([C@H]2CC[C@H](CN(c3cccc(-c4cnn(C5CC5)c4)c3)C(=O)[C@H]3CC[C@H](OC(=O)NCCO)CC3)CC2)cc1C [Compound 4, trans-4-((3-(1-Cyclopropyl-1H-pyrazol-4-yl)phenyl)((trans-4-(4-methoxy-3-methylphenyl)cyclohexyl)methyl)carbamoyl)cyclohexyl (2-hydroxyethyl)carbamate]
COc1ccc([C@H]2CC[C@H](CN(c3cccc(-c4cnc(C5CC5)s4)c3)C(=O)[C@H]3CC[C@H](OC(=O)NCCO)CC3)CC2)cc1C [Compound 4.01, trans-4-((3-(2-Cyclopropylthiazol-5-yl)phenyl)((trans-4-(4-methoxy-3-methylphenyl)cyclohexyl)methyl)carbamoyl)cyclohexyl (2-hydroxyethyl)carbamate]
COc1ccc(C23CCC(CN(c4cccc(-c5cnc(C6CC6)s5)c4)C(=O)[C@H]4CC[C@H](OC(=O)NCCO)CC4)(CC2)CC3)cc1C [Compound 4.02, 4-((3-(2-Cyclopropylthiazol-5-yl)phenyl)((4-(4-methoxy-3-methylphenyl)bicyclo[2.2.2]octan-1-yl)methyl)carbamoyl)cyclohexyl (2-hydroxyethyl)trans-carbamate]
CN(C)c1ccc(C23CCC(CN(c4cccc(-c5cnc(C6CC6)s5)c4)C(=O)[C@H]4CC[C@H](OC(=O)NCCO)CC4)(CC2)CC3)cn1 [Compound 4.03, 4-((3-(2-Cyclopropylthiazol-5-yl)phenyl)((4-(6-(dimethylamino)pyridin-3-yl)bicyclo[2.2.2]octan-1-yl)methyl)carbamoyl)cyclohexyl (2-hydroxyethyl)trans-carbamate]
COc1ccc(C23CCC(CN(c4cccc(-c5cnn(C6CC6)c5)c4)C(=O)[C@H]4CC[C@H](OC(=O)NCCO)CC4)(CC2)CC3)cc1C [Compound 4.04, 4-((3-(1-Cyclopropyl-1H-pyrazol-4-yl)phenyl)((4-(4-methoxy-3-methylphenyl)bicyclo[2.2.2]octan-1-yl)methyl)carbamoyl)cyclohexyl (2-hydroxyethyl)trans-carbamate]
COc1ccc([C@H]2CC[C@H](CN(c3cccc(-c4cnn(C5CC5)c4)c3)C(=O)[C@H]3CC[C@H](OC(=O)NC(C)C)CC3)CC2)cc1C [Compound 4.05, trans-4-((3-(1-Cyclopropyl-1H-pyrazol-4-yl)phenyl)((trans-4-(4-methoxy-3-methylphenyl)cyclohexyl)methyl)carbamoyl)cyclohexyl isopropylcarbamate]
COc1ccc([C@H]2CC[C@H](CN(c3cccc(-c4cnn(C5CC5)c4)c3)C(=O)[C@H]3CC[C@H](OC(=O)N4CC(OC)C4)CC3)CC2)cc1C [Compound 4.06, trans-4-((3-(1-Cyclopropyl-1H-pyrazol-4-yl)phenyl)((trans-4-(4-methoxy-3-methylphenyl)cyclohexyl)methyl)carbamoyl)cyclohexyl 3-methoxyazetidine-1-carboxylate]
COc1ccc([C@H]2CC[C@H](CN(c3cccc(-c4cnn(C5CC5)c4)c3)C(=O)[C@H]3CC[C@H](OC(=O)N4CCOCC4)CC3)CC2)cc1C [Compound 4.07, trans-4-((3-(1-Cyclopropyl-1H-pyrazol-4-yl)phenyl)((trans-4-(4-methoxy-3-methylphenyl)cyclohexyl)methyl)carbamoyl)cyclohexyl morpholine-4-carboxylate]
COc1ccc([C@H]2CC[C@H](CN(c3cccc(-c4cnn(C5CC5)c4)c3)C(=O)[C@H]3CC[C@H](OC(=O)NC4CC4)CC3)CC2)cc1C [Compound 4.08, trans-4-((3-(1-Cyclopropyl-1H-pyrazol-4-yl)phenyl)((trans-4-(4-methoxy-3-methylphenyl)cyclohexyl)methyl)carbamoyl)cyclohexyl cyclopropylcarbamate]
COc1ccc([C@H]2CC[C@H](CN(c3cccc(-c4cnn(C5CC5)c4)c3)C(=O)[C@H]3CC[C@H](OC(=O)NCCN(C)C)CC3)CC2)cc1C [Compound 4.09, trans-4-((3-(1-Cyclopropyl-1H-pyrazol-4-yl)phenyl)((trans-4-(4-methoxy-3-methylphenyl)cyclohexyl)methyl)carbamoyl)cyclohexyl (2-(dimethylamino)ethyl)carbamate]
COc1ccc([C@H]2CC[C@H](CN(c3cccc(-c4cnn(C5CC5)c4)c3)C(=O)[C@H]3CC[C@H](OC(=O)NCCCO)CC3)CC2)cc1C [Compound 4.10, trans-4-((3-(1-Cyclopropyl-1H-pyrazol-4-yl)phenyl)((trans-4-(4-methoxy-3-methylphenyl)cyclohexyl)methyl)carbamoyl)cyclohexyl (3-hydroxypropyl)carbamate]
